Common to all, as to assay type: cell-based
Assay [1] has as its system Jurkat J6. The assay is described as follows: Cell viability, CellTiter-Glo assay, Jurkat J6. To be noted: Homo sapiens. On the procedure:
(§1) The viability of screened cancer cells was recorded using a luminescence-based CellTiter-Glo® assay for the ATP quantification. The screening concentration of the molecule ranged from 100/10 μM to 45/4.5 nM with an 8-point-3-fold dilution series in DMEM media (>0.1% DMSO as control). Each experiment was conducted in more than two biological replicates with three technical replicates. The error bar is a representation of standard deviation among the technical replicates.
(§2) The viability of screened cancer cells was recorded using a luminescence-based CellTiter-Glo® assay for the ATP quantification. The screening concentration of IITK3002 ranged from 10 μM to 4.5 nM with an 8-point-3-fold dilution series in DMEM media (>0.1% DMSO as control). Each experiment was conducted in more than two biological replicates with three technical replicates. The error bar is a representation of standard deviation among the technical replicates.
(§3) a. […] In parallel, we have also synthesized the bromoacetamide (IITK3002) version of the lead molecules which is slightly more reactive with thiol nucleophiles when compared to chlorooacetamide warheads as depicted in FIG. 13. […] In addition, we also evaluated the molecules' antiproliferative potency against a panel of twelve different cancer phenotypes. […]

The subject of assay [2] is HCT116. The experiment in a line: Cell viability, CellTiter-Glo assay, HCT116. To be noted: Homo sapiens, HCT-116. Here is the method: as §1, §2, §3
For assay [3], the system named is Huh-7 cells. The assay is described as follows: Intracellular ROS, H2-DCFDA oxidation assay in Huh-7 cells. To be noted: Huh-7, 37° C., 30 min; IITK3001 and IITK3002 20 μM, H2O2 100 μM. On the procedure:
We used fluorescence imaging-based oxidation of H2-DCFDA by ROS for assessing intracellular oxidative stress. Huh-7 cells were treated at 37° C. for 30 min with IITK3001 and IITK3002 (20 μM), H2O2 (100 μM), ^tertBuOOH (20 μM), NAC (0.5 mM) and 0.1% DMSO as control. Each experiment was conducted in more than two biological replicates with three technical replicates.
b. Effect of Thiols and Ferroptosis Modulators on the Hit Molecules' Antiproliferative Potency: Ferroptosis is directly controlled by the intracellular thiol concentrations in the form of cysteine and glutathione. Several oxidative mechanisms are well-wired in ferroptotic cell death and we set out to investigate the precise molecular mechanism of our lead molecules. Both cysteine and glutathione (GSH) are the enriched thiol-containing small molecule antioxidant system that are essential regulators of redox modulation in cells including ferroptosis. Further, the enzyme glutathione peroxidase 4 (GPX4) is well characterized to specifically quench the lipid peroxide equivalents in cells through the conversion of […] in cells thereby restoring the reduced environment in cells. Therefore, first, we assessed the ability of N-acetylcysteine (NAC) and GSH to suppress our lead molecules antiproliferative activity (FIG. 4a, b). We found a drastic reduction in the molecules' potency with IITK3001 (>1000-fold reduction) and IITK3002 (>500-fold reduction) (FIG. 14a, b). Supporting that, the addition of DL-Buthionine sulfoximine (BSO), an inhibitor of y-glutamylcysteine synthetase (glutathione biosynthesis) combination with our lead molecules potentiated the overall inhibitory capacity (FIG. 14a, b). […] Finally, we assessed the effect of Ferrostain-1 (Fer-1) and Liproxstatin-1 (Lip-1), antioxidants that function by trapping reactive radicals in cells, particularly lipid-peroxide radicals, and preventing the accumulation of lipid peroxides in cells. […] The accumulation of lipid peroxides and overall ROS was also detected using a fluorescence-based H2DCF-DA assay as depicted in FIG. 15. […]

The subject of assay [4] is RPMI 8226. The assay is described as follows: Cell viability, CellTiter-Glo assay, RPMI 8226. To be noted: Homo sapiens; RPMI 8226, cell viability. On the procedure: as §1, §2, §3
Assay [5] deals with MCF7. The experiment in a line: Cell viability, CellTiter-Glo assay, MCF7. To be noted: Homo sapiens. Here is the method: as §1, §2, §3
Assay [6] deals with cancer cells. The assay is described as follows: Antiproliferative potency against cancer cells / panel of cancer cell lines. On the procedure:
as §1, §2
a. […] In parallel, we have also synthesized the bromoacetamide (IITK3002) version of the lead molecules which is slightly more reactive with thiol nucleophiles when compared to chlorooacetamide warheads as depicted in FIG. 13. […] In addition, we also evaluated the molecules' antiproliferative potency against a panel of twelve different cancer phenotypes. The set of cancer cell lines included liver, breast, colon, myeloma, bone, blood, skin, brain and prostate lineages (FIG. 2, 3, Table 1).

Assay [7] has as its system U87MG. The experiment in a line: Cell viability, CellTiter-Glo assay, U87MG. To be noted: Homo sapiens, U-87 MG. Here is the method: as §1, §2, §3
The subject of assay [8] is 4T1. The assay is described as follows: Cell viability, CellTiter-Glo assay, 4T1. To be noted: Mus musculus; 4T1, cell viability. Here is the method: as §1, §2, §3
In assay [9] the test system is MDA-MB-231. The experiment in a line: Cell viability, CellTiter-Glo assay, MDA-MB-231. To be noted: Homo sapiens; MDA-MB-231, cell viability. Here is the method: as §1, §2, §3
The mark [10] stands for this setting: cell line not stated, read-out: EC50, inhibition of cancer cell proliferation.
Where [11] appears, read: range over twelve different cancer phenotypes, read-out: EC50 concentration range across panel of twelve cancer cell lines.

Like-named read-outs stand apart in the source and are kept apart here.

As to `CN(C(=O)CCl)c1ccccc1C(=O)c1ccccc1` [IITK3001, N-(2-benzoylphenyl)-2-chloro-N-methylacetamide], the EC50 in assay [1] is 0.222 µM; in assay [2] it was 0.168 µM; in assay [4], 0.133 µM; in assay [5], 0.312 µM; in assay [6] (setting [10]) it was 0.07 µM; in assay [6] (setting [11]), 0.132 to 0.49 µM. For the same compound, the EC50 in assay [7] came to 0.402 µM; in assay [8] it was 0.499 µM; in assay [9], 0.184 µM. Also, the “intracellular ROS, H2DCF-DA fluorescence intensity” value in [3] was “intracellular ROS generation”.

For `CN(C(=O)CBr)c1ccccc1C(=O)c1ccccc1` [IITK3002, N-(2-benzoylphenyl)-2-bromo-N-methylacetamide], the EC50 is 0.037 µM in assay [1]; 0.037 µM in assay [2]; 0.039 µM in [4]; 0.02 µM in [5]; 0.003 µM in assay [6] (setting [10]); 0.02 to 0.132 µM in assay [6] (setting [11]). The EC50 in [7] is 0.08 µM; in assay [8] it was 0.066 µM; in assay [9] it was 0.026 µM. Also, in assay [3], the “intracellular ROS, H2DCF-DA fluorescence intensity” value is recorded as “intracellular ROS generation”.

(Values after patent US20250099407A1, “2-AMINO BENZOPHENONE DERIVATIVES FOR TARGETED FERROPTOSIS INDUCTION IN CANCER THERAPY” (INDIAN INSTITUTE OF TECHNOLOGY KANPUR, priority 2023, published 2025).)
